Experimental data as given in patent publication US6656906B1, “Hybrid polypeptides with enhanced pharmacokinetic properties” (Trimeris, Inc., priority 1998, dated 2003).

Legend:
[1] = Single-dose administration to rodents (CSI, SC, IV), plasma pharmacokinetics; type: in vivo, Sprague-Dawley albino rats; settings: for bioavailability / AUC(0-t) / AUC(0-inf) / Cmax / half-life / Tmax: rat, in vivo; for bioavailability: read-out: FR (%) relative bioavailability; for half-life: read-out: t1/2, terminal (converted)
Description: T1249 was administered to Sprague-Dawley albino rats in a single dose administered by continuous subcutaneous infusion (SCI), subcutaneous (SC) injection or intravenous (IV) injection. Each treatment group consisted of nine rats per sex per group. […] One group received 50 mM carbonate-bicarbonate, pH 8.5, administered as a control. The peptides were given for 12 hours via a polyvinyl chloride/polyethylene catheter surgically implanted subcutaneously in the nape of the neck. […] The actual milligram amount of T1249 was calculated using the peptide content that was determined for the batch administrated.
Endpoints for analysis included cageside observations (twice daily for mortality and moribundity), clinical observations, clinical laboratory parameters, body weight and necropsy. Blood samples were obtained by a sparse sampling technique over a 12 hour time period from three rats per sex per group at each of the following times: 0.5, 1, 2, 4, 6, 8, […], and 12 hours after dose administration. Sample analysis was performed using a PcAb ECLIA assay (Blackburn, G. et al., 1991, Clin. Chem. 37:1534-1539; Deaver, D., 1995, Nature 377:758).

[2] = Acute toxicity, IV through jugular cannula; type: in vivo; settings: 167 mg/kg (highest dose tested), 0.3 ml over 2-3 min
[3] = Rat pharmacokinetic studies, IV, fluorescence HPLC of plasma; type: in vivo, CD rats; settings: IV, male CD rats
Description: 250-300 g male CD rats, double jugular catheter, obtained from Charles River Laboratories were used. Peptides were injected in one jugular catheter in a volume of 200 μl of peptide solution (approximately 3.75 mg/ml), dosing solution concentration was determined using the Edelhoch method, (Edelhoch, 1967, Biochemistry 6:1948-1954) method and adjusted based on animal weight such that each animal received a dose of 2.5 mg/kg). Approximately 250-300 μl of blood was removed at predetermined time intervals (0, 15, 30 min and 1, 2, 4, 6, and 8 hours) and added to EDTA capiject tubes. Plasma was removed from pelleted cells upon centrifugation and either frozen or immediately processed for fluorescence HPLC analysis.
100 μl of sample plasma was added to 900 μl of precipitation buffer (acetonitrile, 1.0% TFA, detergent) resulting in precipitation of the majority of plasma proteins. Following centrifugation at 10,000 rpm for 10 min, 400 μl of the supernatant was removed and added to 600 μl of HPLC grade water. Serial dilutions were performed as dictated by concentration of peptide present in each sample in dilution buffer comprised of 40% precipitation buffer and 60% HPLC water. In addition to sample dilutions, serial dilutions of dosing solution were performed in buffer as well as in plasma and used to generate a standard curve relating peak area to known concentration of peptide. This curve was then used to calculate concentration of peptide in plasma taking into account all dilutions performed and quantity injected onto column.

[4] = Single-dose administration to primates (SC, IM, IV), plasma pharmacokinetics; type: in vivo, cynomolgus monkeys; settings: for bioavailability / half-life / AUC(0-inf) / Cmax / Tmax / AUC(0-t): in vivo; for bioavailability: read-out: FR (%) bioavailability relative to intravenous administration; for half-life: read-out: t½,terminal (converted); for AUC(0-t): read-out: AUC(0-24)
Description: A washout period of at least three days separated each dosing day. […] The actual milligram amount of test article was calculated using the peptide content that was determined for the batch administered.
Endpoints for analysis included cageside observations, physical examinations and body weight. For the IV phase of the study, blood samples were collected into heparinized tubes at the following time points: immediately after dosing, 0.25, 0.5, 1.5, 3, 6, 12, and 24 hours after dosing. For the IM and SC phases of the study blood samples were collected in heparinized tubes from each animal at the following time points: 0.5, 1, 2, 3, 6, 12, and 24 hours after dosing. Plasma samples were prepared within one hour of collection and flash frozen in liquid nitrogen. Samples analysis was performed using a PcAb ECLIA assay (Blackburn, G. et al., 1991, Clin. Chem. 37:1534-1539; Deaver, D., 1995, Nature 377:758).

[5] = test system: Molt 4, CEM cells
[6] = Penetration into cerebrospinal fluid; type: in vivo, rats; settings: all measurable time points, single dose; below limit of detection
[7] = cynomolgus monkey, IM (0.8 mg/kg)
[8] = cynomolgus monkey, IV (0.8 mg/kg)
[9] = cynomolgus monkey, SC (0.4 mg/kg)
[10] = cynomolgus monkey, SC (0.8 mg/kg)
[11] = cynomolgus monkey, SC (1.6 mg/kg)

CC[C@H](C)[C@H](NC(=O)[C@H](CCC(N)=O)NC(=O)[C@H](C)NC(=O)[C@H](CCC(N)=O)NC(=O)[C@H](CCC(=O)O)NC(=O)[C@H](CC(C)C)NC(=O)[C@H](CC(C)C)NC(=O)[C@H](C)NC(=O)[C@@H](NC(=O)[C@@H](NC(=O)[C@H](CCCCN)NC(=O)[C@H](CCC(N)=O)NC(=O)[C@H](CCC(=O)O)NC(=O)[C@H](Cc1c[nH]c2ccccc12)NC(=O)[C@H](CCC(=O)O)NC(=O)[C@H](CCC(N)=O)NC(=O)[C@H](Cc1c[nH]c2ccccc12)NC(C)=O)[C@@H](C)CC)[C@@H](C)O)C(=O)N[C@@H](CCC(N)=O)C(=O)N[C@@H](CCC(N)=O)C(=O)N[C@@H](CCC(=O)O)C(=O)N[C@@H](CCCCN)C(=O)N[C@@H](CC(N)=O)C(=O)N[C@@H](CCC(=O)O)C(=O)N[C@@H](Cc1ccc(O)cc1)C(=O)N[C@@H](CCC(=O)O)C(=O)N[C@@H](CC(C)C)C(=O)N[C@@H](CCC(N)=O)C(=O)N[C@@H](CCCCN)C(=O)N[C@@H](CC(C)C)C(=O)N[C@@H](CC(=O)O)C(=O)N[C@@H](CCCCN)C(=O)N[C@@H](Cc1c[nH]c2ccccc12)C(=O)N[C@@H](C)C(=O)N[C@@H](CO)C(=O)N[C@@H](CC(C)C)C(=O)N[C@@H](Cc1c[nH]c2ccccc12)C(=O)N[C@@H](CCC(=O)O)C(=O)N[C@@H](Cc1c[nH]c2ccccc12)C(=O)N[C@@H](Cc1ccccc1)C(N)=O [T1249]
time to steady-state plasma peptide concentrations ([1]; CSI): approximately four hours | dose proportionality of Cpss and AUC ([1]; CSI, 0.5 to 6.5 mg/kg): linear pharmacokinetics | dose dependence of exposure ([1]; SC injection): not dose-dependent | changes in body weight, physical observations, hematology and clinical chemistry parameters or macroscopic pathology ([1]; all dose groups): no changes | dose dependence of pharmacokinetics ([1]; bolus IV injection): linear dose-dependent pharmacokinetics | bioavailability ([1]; SC 1.2 mg/kg relative to IV 1.5 mg/kg): 73% | bioavailability ([1]; SC 15 mg/kg relative to IV 5 mg/kg): 30% | AUC(0-t) ([1]; CSI, 0.5 mg/kg): 7990 ng·h/mL | AUC(0-t) ([1]; CSI, 2.0 mg/kg): 25900 ng·h/mL | AUC(0-t) ([1]; CSI, 6.5 mg/kg): 120000 ng·h/mL | AUC(0-inf) ([1]; IV 1.5 mg/kg): 47100 ng·h/mL | AUC(0-t) ([1]; IV 1.5 mg/kg): 45600 ng·h/mL | Cmax ([1]; IV 1.5 mg/kg): 15700 ng/mL | half-life ([1]; IV 1.5 mg/kg): 2.46 h | AUC(0-inf) ([1]; IV 5.0 mg/kg): 120000 ng·h/mL | AUC(0-t) ([1]; IV 5.0 mg/kg): 118000 ng·h/mL | Cmax ([1]; IV 5.0 mg/kg): 46300 ng/mL | half-life ([1]; IV 5.0 mg/kg): 1.86 h | AUC(0-inf) ([1]; SC 1.2 mg/kg): 27600 ng·h/mL | AUC(0-t) ([1]; SC 1.2 mg/kg): 27000 ng·h/mL | Cmax ([1]; SC 1.2 mg/kg): 6370 ng/mL | Tmax ([1]; SC 1.2 mg/kg): 1.09 h | half-life ([1]; SC 1.2 mg/kg): 2.02 h | AUC(0-inf) ([1]; SC 15 mg/kg): 110000 ng·h/mL | AUC(0-t) ([1]; SC 15 mg/kg): 107000 ng·h/mL | Cmax ([1]; SC 15 mg/kg): 21500 ng/mL | Tmax ([1]; SC 15 mg/kg): 1.88 h | half-life ([1]; SC 15 mg/kg): 2 h | acute toxicity (death within 24 hours) [2]: not acutely toxic | beta-phase half-life relative to T20 [3]: nearly three times greater than T20 | total AUC relative to T20 [3]: nearly three times greater than T20 | t½,terminal ([4]; IM (0.8 mg/kg)): 5.57 h | t½,terminal ([4]; IV (0.8 mg/kg), 0.8 mg/kg): 5.35 h | t½,terminal ([4]; SC (0.8 mg/kg), 0.8 mg/kg): 4.83 h | linearity of pharmacokinetics ([4]; SC administration, 0.4-1.6 mg/kg): linear pharmacokinetics | level at 24 h ([4]; both sexes, cynomolgus monkey, plasma, 24 hours after SC and IV administration, read-out: quantifiable plasma levels at 24 hours): > 500 ng/mL | bioavailability ([4]; cynomolgus monkey, 0.8 mg/kg, IM (0.8 mg/kg)): ~64% | bioavailability ([4]; cynomolgus monkey, 0.8 mg/kg, SC (0.8 mg/kg)): ~92% | half-life ([4]; cynomolgus monkey, im, 0.8 mg/kg, IM (0.8 mg/kg)): 5.6 h | half-life ([4]; cynomolgus monkey, iv, 0.8 mg/kg, IV (0.8 mg/kg)): 5.4 h | half-life ([4]; cynomolgus monkey, sc, 0.4 mg/kg, SC (0.4 mg/kg)): 6.23 h | half-life ([4]; cynomolgus monkey, sc, 0.8 mg/kg, SC (0.8 mg/kg)): 4.8 h | half-life ([4]; cynomolgus monkey, sc, 1.6 mg/kg, SC (1.6 mg/kg)): 5.55 h | AUC(0-inf) [4, 7]: 59500 ng·h/mL | Cmax [4, 7]: 6370 ng/mL | Tmax [4, 7]: 2.32 h | AUC(0-t) [4, 7]: 56400 ng·h/mL | AUC(0-inf) [4, 8]: 92500 ng·h/mL | Cmax [4, 8]: 26700 ng/mL | AUC(0-t) [4, 8]: 87400 ng·h/mL | AUC(0-inf) [4, 9]: 40900 ng·h/mL | Cmax [4, 9]: 3170 ng/mL | Tmax [4, 9]: 3.97 h | AUC(0-t) [4, 9]: 37500 ng·h/mL | AUC(0-inf) [4, 10]: 85300 ng·h/mL | Cmax [4, 10]: 6850 ng/mL | Tmax [4, 10]: 4.58 h | AUC(0-t) [4, 10]: 8120 ng·h/mL | AUC(0-inf) [4, 11]: 181000 ng·h/mL | Cmax [4, 11]: 13300 ng/mL | Tmax [4, 11]: 4.72 h | AUC(0-t) [4, 11]: 168000 ng·h/mL | cytotoxicity in vitro [5]: No overt evidence of T1249 cytotoxicity | concentration in cerebrospinal fluid (CSF) [6]: < 2.0 ng T1249/ml CSF
